Assay results as given in paper PMC12073194, “Echinacoside Ameliorates UVB-Induced Skin Damage Through Selective Inhibition of the Cutaneous TRPV3 Channel” (Molecules, 2025).

Molecular target: T1, TRPV3 (hTRPV3, transient receptor potential vanilloid 3) (Homo sapiens, UniProt Q8NET8)
T1 construct: hTRPV3 (NM_145068.4)
T1 sequence (Q8NET8 1-790): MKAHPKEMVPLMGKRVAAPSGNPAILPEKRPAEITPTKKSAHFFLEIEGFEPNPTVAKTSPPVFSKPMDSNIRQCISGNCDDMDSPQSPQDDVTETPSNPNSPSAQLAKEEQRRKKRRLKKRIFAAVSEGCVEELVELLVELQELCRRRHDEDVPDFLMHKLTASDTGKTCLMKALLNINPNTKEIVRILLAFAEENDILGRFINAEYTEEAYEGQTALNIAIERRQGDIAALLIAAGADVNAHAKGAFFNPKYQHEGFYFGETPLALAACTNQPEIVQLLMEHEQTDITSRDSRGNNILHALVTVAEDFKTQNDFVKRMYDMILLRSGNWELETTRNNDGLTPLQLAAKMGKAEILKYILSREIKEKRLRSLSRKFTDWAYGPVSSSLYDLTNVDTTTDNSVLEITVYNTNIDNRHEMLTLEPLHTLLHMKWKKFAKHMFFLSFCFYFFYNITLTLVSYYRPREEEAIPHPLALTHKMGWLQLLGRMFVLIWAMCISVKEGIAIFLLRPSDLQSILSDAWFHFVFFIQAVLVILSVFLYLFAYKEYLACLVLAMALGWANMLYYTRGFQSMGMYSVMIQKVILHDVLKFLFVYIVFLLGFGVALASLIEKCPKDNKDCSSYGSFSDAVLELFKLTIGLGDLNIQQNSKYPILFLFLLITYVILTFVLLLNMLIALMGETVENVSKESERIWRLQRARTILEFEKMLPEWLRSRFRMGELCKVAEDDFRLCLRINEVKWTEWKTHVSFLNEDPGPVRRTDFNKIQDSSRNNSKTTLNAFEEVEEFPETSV
Assay: whole-cell and inside-out single-channel patch clamp in HEK293T cells; site-directed mutagenesis
Format: cell-based

## C[C@@H]1O[C@@H](O[C@@H]2[C@@H](O)[C@H](OCCc3ccc(O)c(O)c3)O[C@H](CO[C@@H]3O[C@H](CO)[C@@H](O)[C@H](O)[C@H]3O)[C@H]2OC(=O)/C=C/c2ccc(O)c(O)c2)[C@H](O)[C@H](O)[C@H]1O [echinacoside]
  IC50: 21.9 ± 1.28 µM
